Results from patent US12077501B2, “Compounds and compositions for intracellular delivery of agents” (ModernaTX, Inc., priority 2017, dated 2024).

Assays:
luciferase = experiment: Luciferase expression in LDLR −/− knockout and wild-type mice (FIG. 9A); type: in vivo, mouse; conditions: 0.05 mpk, 0.25 mpk and 0.5 mpk (FIG. 9A)
Excerpt: FIG. 9A is a bar graph showing expression of luciferase induced by administration of nanoparticle compositions including Compound 11 at dosages of 0.05 mpk, 0.25 mpk, and 0.5 mpk to LDLR −/− knockout and wild-type mice.

LDL-c = LDL-c levels in LDLR knockout mice after mRNA encoding the LDL receptor (FIG. 9B); type: in vivo, mouse; conditions: mRNAs encoding the LDL receptor, Compound 11 at 0.5 and 1 mpk (FIG. 9B)
hEPO = hEPO expression in rats after i.v. administration of nanoparticle compositions (FIGS. 8A, 8B); type: in vivo, rat; conditions: rats, 2 mpk, i.v. administration (FIG. 8A)
Excerpt: PBS (phosphate buffered saline) is used as control. FIG. 8A compares the hEPO concentration after administration of nanoparticle compositions containing Compound 23, Compound 11, KL22, and MC3 at 2 mpk, i.v. administration. […] FIG. 8B illustrates the results of a dose response study using Compound 20, KL22, and MC3 at dose of 0.2, 0.5 and 1 mpk. […] In FIG. 8A, the numbers 1-5 refer to compositions containing the following: 1: Compound 23, 2: Compound 11, 3: KL22; 4: MC3; 5: PBS. In FIG. 8B, the numbers […] refer to compositions containing the following: 1: Compound 20, 0.2 mpk; 2: Compound 20, 0.5 mpk; 3: Compound 20, 1 mpk; 4: KL22, 0.2 mpk; 5: KL22, 0.5 mpk; 6: KL22, 1 mpk; 7: MC3, 0.2 mpk; 8: MC3, 0.5 mpk; 9: MC3, 1 mpk; 10: PBS.

rats = experiment: Tolerability / toxicity in rats (FIGS. 8A, 8B); type: in vivo
hEPO expression [1] = experiment: Expression of hEPO in rats induced by nanoparticle compositions; type: in vivo, S.D. rats; conditions: rats, 3, 6 and 24 hours
Description: Formulations were administered intravenously, subcutaneously or intramuscularly to rats (n=3 or 6) at a dosage of 0.2 mg/kg or 0.5 mg/kg (mpk) and hEPO levels measured at 3, 6, and 24 hour time points. After the 48 hour time point, livers and spleens were harvested and frozen.
(§1) In contrast, hEPO expression in rats induced by administration of a nanoparticle composition including a compound according to one of formulae (I), (Ia1)-(Ia6), (Ib), (II), (IIa), (III), and (IIIa) was substantially […] than that measured for MC3. […] Tables 7c and 7d show additional protein expressions and clearance data from compositions with various compounds disclosed herein as compared to with MC3. Tables 7e, 7f and 7g show hEPO expression data in CD-1 mice at a dose of 0.5 mpk.

luciferase expression = experiment: Expression of Luc in different organs (liver, lung, spleen, femur), bioluminescence; type: in vivo; conditions: mice, intravenous, 0.5 mpk, 6 hours
Description: The efficacy of the nanoparticle compositions presented in Tables 1, la, 17-1, 19-1, 20-1 and 21-1 was further evaluated by measuring the expression of modified luciferase in the liver, lung, spleen, and femur upon administration of a given composition. Formulations were administered intravenously to mice (n=3) at a dosage of 0.5 mpk and bioluminescence measured after 6 hours. The standard MC3 formulation and a PBS control were also tested.

Luc expression = Luc expression in CD-1 mice compared with MC3; type: in vivo; conditions: ratio to MC3, Table 7a
Excerpt: as §1

[2] = Purity at start and after storage for 65 h at 25 °C or 37 °C; type: physicochemical
[3] = Particle size and polydispersity index of nanoparticle compositions (Zetasizer Nano ZS); type: physicochemical
Description: A Zetasizer Nano ZS (Malvem Instruments Ltd, Malvem, Worcestershire, UK) can be used to determine the particle size, the polydispersity index (PDI) and the zeta potential of the nanoparticle compositions in 1×PBS in determining particle size and 15 mM PBS in determining zeta potential.

[4] = Encapsulation efficiency of RNA (QUANT-IT RIBOGREEN RNA assay); type: physicochemical
Procedure, shortened: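 Samples diluted to about 5 μg/mL RNA in TE buffer pH 7.5, treated with buffer or 2% Triton X-100 for 15 min at 37° C, then stained with RiboGreen (1:100). Fluorescence at about 480/520 nm, blank-subtracted; free RNA fraction is intact over Triton-disrupted signal.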

[5] = Lipid clearance: % dose remaining, Tables 7c and 8b-8e (species not given); type: in vivo
Excerpt: as §1

hEPO expression [6] = experiment: hEPO (miR126 + miR142) mRNA expression, Tables 8b-8e; type: in vivo
[7] = Lipid clearance: % dose remaining in liver of CD-1 mice; type: in vivo; conditions: intravenous, 0.5 mg/kg, CD-1 mouse, Table 8a
Procedure, shortened: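 Nanoparticle compositions containing the test compound were dosed to CD-1 mice at 0.5 mpk, and hEPO expression was measured. Clearance data were collected from the same compositions.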

hEPO expression [8] = experiment: hEPO expression in CD-1 mice compared with MC3; type: in vivo
Procedure, shortened: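 Read-out was hEPO expression in CD-1 mice after a 0.5 mpk dose of nanoparticle composition including the test compound. An MC3 composition served as reference.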

[9] = system: hepatocytes and Kupffer cells; experiment: Mouse liver immunohistochemistry (IHC) with GFP mRNA (FIGS. 11A, 11B); type: in vivo; conditions: CD-1 mouse liver, 6h after intravenous administration, 0.5 mpk (FIG. 11A)
Excerpt: FIGS. 11A and 11B are a pair of images comparing the results of a mouse liver immunohistochemistry (IHC) using mRNA expressing green fluorescent protein (GFP) after administration of nanoparticle compositions containing Compound 4 and MC3.

[10] = Table 1f, Formulated with lipid:Chol:DOPE:PEG 1 40:38.5:20:1.5
[11] = Table 1e, row marked #: Formulated with lipid:Chol:PEG 1 50:47.5:2.5
[12] = Table 1f, row marked #: Formulated with lipid:Chol:PEG 1 50:47.5:2.5
[13] = Table 1d, row marked #: Formulated with lipid:Chol:PEG 1 50:47.5:2.5

Compound: CCCCCCCCCCCCN(CCCCCCCCCCCC)CCN(CCCCCCCCCCCC)CC(=O)N1CCN(C(=O)CN(CCCCCCCCCCCC)CCCCCCCCCCCC)CC1 [Compound 11, 2-(Didodecylamino)-1-(4-(N-(2-(didodecylamino)ethyl)-N-dodecylglycyl)piperazin-1-yl)ethan-1-one]
- LDLr dependence of luciferase expression (luciferase): LDLr independent lipid
- LDL-c levels (LDL-c): found to drop
- hEPO concentration after administration of nanoparticle compositions (hEPO): comparable to MC3
- tolerability (rats; 2 mpk, i.v. (FIG. 8A), compared to KL22): improved tolerability as compared to KL22

Compound: CCCCCCCCCCCCN(CCCCCCCCCCCC)CCN(CCCCCCCCCCCC)CCN1CCN(CCN(CCCCCCCCCCCC(=O)OC)CCCCCCCCCCCC(=O)OC)CC1 [Compound 16, Dimethyl 12,12′-((2-(4-(2-((2-(didodecylamino)ethyl)(dodecyl)amino)ethyl)piperazin-1-yl)ethyl)azanediyl)didodecanoate]
- hEPO expression at each time point, rank among compositions of Table 6 (hEPO expression [1]): lowest hEPO expression

Compound: CCCCCCCCCCCCCCN(CCCCCCCCCCCCCC)CCN1CCN(CCN(CCCCCCCCC)CCN(CCCCCCCCC)CCCCCCCCC)CC1 [Compound 20, N^1-(2-(4-(2-(Ditetradecylamino)ethyl)piperazin-1-yl)ethyl)-N^1,N^2,N^2-trinonylethane-1,2-diamine]
- total flux, rank among the compositions of Table 3 (luciferase expression): highest total flux

Compound: CCCCCCCCCCCCN(CCCCCCCCCCCC)CCN(CCCCCCCCCCCC)CCN1CCN(CCN(CCCCCCCCC)CCCCCCCCC)CC1 [Compound 23, N^1-(2-(4-(2-(Dinonylamino)ethyl)piperazin-1-yl)ethyl)-N^1,N^2,N^2-tridodecylethane-1,2-diamine]
- Lipid/MC3 Luc CD-1 (mice) (Luc expression): several fold higher
- toxicity (rats; 2 mg/kg dose): toxic

Compound: CCCCCCCCCN(CCCCCCCCC)CCN(CCCCCCCCC)CC(=O)N1CCN(C(=O)CN(CCCCCCCCC)CCCCCCCC(=O)OC)CC1 [Compound 44, Methyl 8-((2-(4-(N-(2-(dinonylamino)ethyl)-N-nonylglycyl)piperazin-1-yl)-2-oxoethyl)(nonyl)amino)octanoate]
- Purity % 25° C. no shaking t = 65 h ([2]; after storage for 65 h at 25° C., no shaking): 92%
- Purity % 37° C. shaking t = 65 h ([2]; after storage for 65 h at 37° C., shaking): 91%
- Purity % t = 0 h ([2]; beginning of the study, 25° C.): 90%

Compound: CCCCCCCCCN(CCCCCCCCC)CCN(CCCCCCCCC)CC(=O)OC(C)CC(C)OC(=O)CN(CCCCCCCCC)CCCCCCCCC (centres unmarked) [Compound 189, 4-((N-(2-(Dinonylamino)ethyl)-N-nonylglycyl)oxy)pentan-2-yl dinonylglycinate]
- PDI [3, 10]: 0.16
- Size (nm) [3, 10]: 70.1 nm
- EE (%) [4, 10]: 98.3%
- % Dose Remaining (liver, 24 h) ([5]; Table 8d): 91.63%
- AUC (hEPO expression [6]; Table 8d): 1.15e+07 pg·h/mL

Compound: CCCCCC=CCC=CCCCCCCCCC(CCCCCCCCC=CCC=CCCCCC)OC(=O)CCCN(C)C (centres unmarked) [MC3, heptatriaconta-6,9,28,31-tetraen-19-yl 4-(dimethylamino)butanoate, reference compound]
- % Dose Remaining 24 hr [7]: 64.65%
- PDI [3, 11]: 0.22
- Size (nm) [3, 11]: 109.0 nm
- PDI [3, 12]: 0.26
- Size (nm) [3, 12]: 129.7 nm
- PDI [3, 13]: 0.20
- Size (nm) [3, 13]: 105.0 nm
- EE (%) [4, 11]: 93.0%
- EE (%) [4, 12]: 92.5%
- EE (%) [4, 13]: 84.1%
- % Dose Remaining (liver, 24 h) ([5]; Table 8c): 58.41%
- % Dose Remaining (liver, 24 h) ([5]; Table 8d): 54.04%
- AUC (p/s*h) CD-1 mice 0.5 mpk (hEPO expression [8]; intramuscular, title: 0.01 mg/kg, Table 7f): 27727 p/s*h
- AUC (p/s*h) CD-1 mice 0.5 mpk (hEPO expression [8]; subcutaneous, 0.5 mg/kg, Table 7g): 375994 p/s*h
- AUC (hEPO expression [6]; Table 8c): 1.52e+07 pg·h/mL
- AUC (hEPO expression [6]; Table 8d): 6.95e+08 pg·h/mL
- AUC (mIU/mL*h) (hEPO expression [6]; lipid:Chol:PEG 1 50:47.5:2.5, Table 8e): 2.24E+07 mIU/mL*h
- GFP protein expression in liver cell types (IHC) [9]: observed in both hepatocytes and Kupffer cells
- hEPO expression at each time point, rank among compositions of Table 6 (hEPO expression [1]): highest hEPO expression
